From patent publication US20230174575A1 (priority 2020, published 2023)
Where two headings read alike, the source gives them in different places.

Key:
SARS-CoV-2 [1] = assay: Virucidal activity, plaque test; type: cell-based
SARS-CoV-2 [2] = type: cell-based; conditions: for Percentage replication of SARS-CoV-2 (lysozyme only): no ovotransferrin
Vero cells = assay: Cell toxicity against Vero cells by MTT assay; conditions: MTT assay
Procedure: (§1) Cell toxicity was monitored by establishing the effect of lysozyme HCl against Vero cells (epithelial cells of monkey kidneys). The cells were seeded in 96-well plates at the concentration of 1×10^4 cells/well. 24 hours after seeding, the cells were treated with serial dilutions of lysozyme HCl or chloroquine (as control), in a final volume of 200 in triplicate. After 72 hours' incubation at 37° C. with 5% CO2, cell viability was measured by MTT assay (D'Alessandro, M. et al., Differential effects on angiogenesis of two antimalarial compounds, dihydroartemisinin and artemisone: Implications for embryotoxicity, Toxicology. 241 (2007) 66-74. Doi: 10.1016/j.tox.2007.08.084).
(§2) The data were calculated as percentage cell viability using the formula:
(§3) [(absorbance of sample−blank of cell-free sample)/mean absorbance of control of media]×100.
(§4) The cytotoxicity of ovotransferrin and chloroquine (CQ) was measured by MTT assay, similarly to the method used for lysozyme HCl.

[3] = system: Micrococcus lysodeikticus cells; assay: Enzyme activity, enzymatic turbidimetric method (FIP method); type: biochemical
Procedure: • Flow rate: 1 ml/min Determination of assay value (enzymatic turbidimetric method using Micrococcus lysodeikticus cells): according to the FIP method (Pharmaceutical Enzyme, Ed 1997, 84, 375) and J Pharm Pharmacol. 2001; 53 (4); 549-54.

[4] = Cell toxicity against Vero cells by MTT assay; conditions: African green monkey
Procedure: as §1, §2, §3, §4

lysozyme hydrochloride [Lysozyme HCl]
mean PFU/ml (average of three experiments) (SARS-CoV-2 [1]; 0.42 mg/ml): 70 PFU/ml
percentage (PFU relative to untreated infected cells) (SARS-CoV-2 [1]; 0.42 mg/ml): 83.9%
mean PFU/ml (average of three experiments) (SARS-CoV-2 [1]; 0.56 mg/ml): 61.65 PFU/ml
percentage (PFU relative to untreated infected cells) (SARS-CoV-2 [1]; 0.56 mg/ml): 84.1%
mean PFU/ml (average of three experiments) (SARS-CoV-2 [1]; 1 mg/ml): 75 PFU/ml
percentage (PFU relative to untreated infected cells) (SARS-CoV-2 [1]; 1 mg/ml): (<100%)
reduction of infectivity of SARS-CoV-2 (SARS-CoV-2 [1]; any of the doses used (0.42, 0.56, 1 mg/ml), plaque assay): did not reduce the infectivity
antiviral activity against SARS-CoV-2 infection in the in vitro test (SARS-CoV-2 [2]): high antiviral activity
percentage viral replication (SARS-CoV-2 [2]): very low, and close to zero
% viral replication (average of 9 replications) (SARS-CoV-2 [2]; Dry heat treatment (74° C. for 60 min), 0.33 mg/mL): 83.24%
% viral replication (average of 9 replications) (SARS-CoV-2 [2]; Dry heat treatment (74° C. for 60 min), 0.5 mg/mL): 42.05%
% viral replication (average of 9 replications) (SARS-CoV-2 [2]; Dry heat treatment (74° C. for 60 min), 0.75 mg/mL): 11.31%
% viral replication (average of 9 replications) (SARS-CoV-2 [2]; Dry heat treatment (99° C. for 40 min), 0.33 mg/mL): 60.32%
% viral replication (average of 9 replications) (SARS-CoV-2 [2]; Dry heat treatment (99° C. for 40 min), 0.5 mg/mL): 35.56%
% viral replication (average of 9 replications) (SARS-CoV-2 [2]; Dry heat treatment (99° C. for 40 min), 0.75 mg/mL): 16.58%
% viral replication (average of 9 replications) (SARS-CoV-2 [2]; Heat treatment in aqueous solution, 90° C. for 3 minutes, 0.33 mg/mL): 87.85%
% viral replication (average of 9 replications) (SARS-CoV-2 [2]; Heat treatment in aqueous solution, 90° C. for 3 minutes, 0.5 mg/mL): 67.97%
% viral replication (average of 9 replications) (SARS-CoV-2 [2]; Heat treatment in aqueous solution, 90° C. for 3 minutes, 0.75 mg/mL): 15.55%
% viral replication (average of 9 replications) (SARS-CoV-2 [2]; Heat treatment in aqueous solution, 90° C. for 6 minutes, 0.33 mg/mL): 87.96%
% viral replication (average of 9 replications) (SARS-CoV-2 [2]; Heat treatment in aqueous solution, 90° C. for 6 minutes, 0.5 mg/mL): 51.62%
% viral replication (average of 9 replications) (SARS-CoV-2 [2]; Heat treatment in aqueous solution, 90° C. for 6 minutes, 0.75 mg/mL): 9.88%
% viral replication (average of 9 replications) (SARS-CoV-2 [2]; Heat treatment in aqueous solution, 90° C. for 20 minutes, 0.33 mg/mL): 78.00%
% viral replication (average of 9 replications) (SARS-CoV-2 [2]; Heat treatment in aqueous solution, 90° C. for 20 minutes, 0.5 mg/mL): 36.10%
% viral replication (average of 9 replications) (SARS-CoV-2 [2]; Heat treatment in aqueous solution, 90° C. for 20 minutes, 0.75 mg/mL): 18.30%
% viral replication (average of 9 replications) (SARS-CoV-2 [2]; Heat treatment in aqueous solution, 90° C. for 25 minutes, 0.33 mg/mL): 42.06%
% viral replication (average of 9 replications) (SARS-CoV-2 [2]; Heat treatment in aqueous solution, 90° C. for 25 minutes, 0.5 mg/mL): 24.61%
% viral replication (average of 9 replications) (SARS-CoV-2 [2]; Heat treatment in aqueous solution, 90° C. for 25 minutes, 0.75 mg/mL): 2.62%
% viral replication (average of 9 replications) (SARS-CoV-2 [2]; No heat treatment, 0.33 mg/mL): 79.72%
% viral replication (average of 9 replications) (SARS-CoV-2 [2]; No heat treatment, 0.5 mg/mL): 58.13%
% viral replication (average of 9 replications) (SARS-CoV-2 [2]; No heat treatment, 0.75 mg/mL): 25.51%
Percentage replication of SARS-CoV-2 (lysozyme only) (SARS-CoV-2 [2]; lysozyme HCl 0.32 mg/ml): 93%
Percentage replication of SARS-CoV-2 (lysozyme only) (SARS-CoV-2 [2]; lysozyme HCl 0.42 mg/ml): 89%
Percentage replication of SARS-CoV-2 (lysozyme only) (SARS-CoV-2 [2]; lysozyme HCl 0.56 mg/ml): 93%
viral replication inhibited by (SARS-CoV-2 [2]; lysozyme HCl 0.75 mg/ml, in the absence of ovotransferrin): about 62%
Percentage replication of SARS-CoV-2 (lysozyme only) (SARS-CoV-2 [2]; lysozyme HCl 0.75 mg/ml): 62%
CC50 for Vero cells (Vero cells; 72 hours): 13.3 mg/mL
Enzyme activity (turbidimetric method) ([3]; No heat treatment): 98.7
Enzyme activity (turbidimetric method) ([3]; after dry heat treatment (74° C. for 60 min)): 98.8
Enzyme activity (turbidimetric method) ([3]; after dry heat treatment (99° C. for 40 min)): 98.1
Enzyme activity (turbidimetric method) ([3]; after heat treatment in aqueous solution, 90° C. for 3 minutes): 97.3
Enzyme activity (turbidimetric method) ([3]; after heat treatment in aqueous solution, 90° C. for 6 minutes): 97.4
Enzyme activity (turbidimetric method) ([3]; after heat treatment in aqueous solution, 90° C. for 20 minutes): 92.1
Enzyme activity (turbidimetric method) ([3]; after heat treatment in aqueous solution, 90° C. for 25 minutes): 88.8

CCN(CC)CCCC(C)Nc1ccnc2cc(Cl)ccc12 (stereo not drawn) [CQ, chloroquine, reference compound]
CC50 at 72 h [4]: 95.3 ± 18 µM
CC10 (Vero cells; unit not given): 20.93±4.39

Heat-treated lysozyme: lysozyme HCl heat-treated at 99° C. for 40 minutes
mean PFU/ml (average of three experiments) (SARS-CoV-2 [1]; 0.42 mg/ml): 58.61 PFU/ml
percentage (PFU relative to untreated infected cells) (SARS-CoV-2 [1]; 0.42 mg/ml): 57.2%
infectivity of SARS-CoV-2 reduced by (SARS-CoV-2 [1]; 0.42 mg/ml, plaque assay): 57.2%
mean PFU/ml (average of three experiments) (SARS-CoV-2 [1]; 0.56 mg/ml): 60.41 PFU/ml
percentage (PFU relative to untreated infected cells) (SARS-CoV-2 [1]; 0.56 mg/ml): 58.9%
infectivity of SARS-CoV-2 reduced by (SARS-CoV-2 [1]; 0.56 mg/ml, plaque assay): 58.9%
mean PFU/ml (average of three experiments) (SARS-CoV-2 [1]; 1 mg/ml): 71.32 PFU/ml
percentage (PFU relative to untreated infected cells) (SARS-CoV-2 [1]; 1 mg/ml): (69.6%)
infectivity of SARS-CoV-2 reduced by (SARS-CoV-2 [1]; 1 mg/ml, plaque assay): 69.6%
